Source: patent US11065355B2, “Device for monitoring efficacy of a decontamination process comprising a bacteria cell and method of using” (priority 2017, dated 2021)

Test system: M. terrae cells
Experiment: PAA time course, cell suspension testing of M. terrae cell resistance to high-level disinfection
Assay type: cell-based, Mycobacterium terrae ATCC 15755
Conditions: for Log Population / Log reduction / M. terrae Population: 850 ppm PAA, 30° C., 21 days growth culture
Procedure: Into a 50 ml polypropylene tube, pipet 0.85 ml of RAPICIDE Part A, 0.85 ml of RAPICIDE part B, and mix with 48.3 ml of distilled water. Vortex to mix thoroughly. Place tube in 30° C. water bath to equilibrate for at least 10 minutes before use.
PAA Time course: Exposure to PAA for various contact time points at 30° C. at the minimum effective concentration of RAPICIDE PAA (850 ppm). 10 μl of M. terrae cell samples at a target concentration of at least 1×10^8 cfu/mL were added to a 1.5 mL […] each sample in a 30° C. water bath. At the end of each contact time, samples were neutralized by adding 600 μL of 3% sodium thiosulfate with 0.05% Tween 80 for 15 mins at 30° C. Samples were centrifuged for 10 mins at 14000 rpm at 4 C. The supernatant was decanted off and samples were resuspended in 1 ml of BBL buffer. Serial dilutions (1:10) were made of each sample and 1 mL of each dilution was plated on Middlebrook 7H10 agar with Middlebrook OADC enrichment. Plates were incubated at 37° C. for 14-21 days.
The procedure of Example 1 was repeated using 21-days growth cells, with the M. terrae cells exposed to PAA instead of OPA.

CC(=O)OO [PAA, peracetic acid]
Log Population (exposure 1 seconds): 10.2
Log reduction (exposure 1 seconds): 0.0
M. terrae Population (exposure 1 seconds): 1.53E+10 CFU
Log Population (exposure 15 seconds): 9.5
Log reduction (exposure 15 seconds): 0.7
M. terrae Population (exposure 15 seconds): 3.45E+09 CFU
Log Population (exposure 30 seconds): 8.1
Log reduction (exposure 30 seconds): 2.1
M. terrae Population (exposure 30 seconds): 1.40E+08 CFU
Log Population (exposure 60 seconds): 7.3
Log reduction (exposure 60 seconds): 2.9
M. terrae Population (exposure 60 seconds): 2.00E+07 CFU
Log Population (exposure 90 seconds): 0
Log reduction (exposure 90 seconds): 10.2
M. terrae Population (exposure 90 seconds): 1.00E+00 CFU
Log Population (exposure 120 seconds): 0
Log reduction (exposure 120 seconds): 10.2
M. terrae Population (exposure 120 seconds): 1.00E+00 CFU
Log Population (exposure 150 seconds): 0
Log reduction (exposure 150 seconds): 10.2
M. terrae Population (exposure 150 seconds): 1.00E+00 CFU
Log Population (exposure 180 seconds): 0
Log reduction (exposure 180 seconds): 10.2
M. terrae Population (exposure 180 seconds): 1.00E+00 CFU
Log Population (exposure 210 seconds): 0
Log reduction (exposure 210 seconds): 10.2
M. terrae Population (exposure 210 seconds): 1.00E+00 CFU
Log Population (exposure 240 seconds): 0
Log reduction (exposure 240 seconds): 10.2
M. terrae Population (exposure 240 seconds): 1.00E+00 CFU
Log Population (exposure 270 seconds): 0
Log reduction (exposure 270 seconds): 10.2
M. terrae Population (exposure 270 seconds): 1.00E+00 CFU
Log Population (exposure 300 seconds): 0
Log reduction (exposure 300 seconds): 10.2
M. terrae Population (exposure 300 seconds): 1.00E+00 CFU
exposure to PAA for a 6 log reduction in M. terrae cells (PAA at 30° C., 21-days growth cells): about 75 seconds
